Source: patent publication US20220009914A1, “Analogs of Nitrofuran Antibiotics to Combat Resistance” (The Trustees of Indiana University, priority 2020, published 2022)
Read-outs that look alike come from different tables or passages of the source.

Columns and labels:
[1] = target: T1, E. coli GroEL/ES (Escherichia coli, UniProt P0A6F5); assay: GroEL/ES-mediated dMDH refolding assay; type: biochemical
T1 construct: made in house; host or cells: GroEL in NEB 5-alpha E. coli; GroES in E. coli BL21 (DE3)
Experimental: Evaluating compounds for inhibition in the GroEL/ES-mediated dMDH refolding assay. All compounds were evaluated for inhibiting E. coli GroEL/ES-mediated refolding of the denatured MDH reporter enzyme. Reagent preparation: For these assays, four primary reagent stocks were prepared: 1) GroEL/ES-dMDH binary complex stock; 2) ATP initiation stock; 3) EDTA quench stock; 4) MDH enzymatic assay stock. Denatured MDH (dMDH) was prepared by 2-fold dilution of MDH (5 mg/ml, soluble pig heart MDH from Roche, product #10127248001) with denaturant buffer (7 M guanidine-HCl, 200 mM Tris, pH 7.4, and 50 mM DTT). MDH was completely denatured by incubating at room temperature for >45 min. The binary complex solutions were prepared by slowly adding the dMDH stock to a stirring stock with GroEL and GroES in folding buffer (50 mM Tris-HCl, pH 7.4, 50 mM KCl, 10 mM MgC2, and 1 mM DTT). […] For the ATP initiation stock, ATP solid was diluted into folding buffer to a final concentration of 2.5 mM. Quench solution contained 600 mM EDTA (pH 8.0). The MDH enzymatic assay stock consisted of 20 mM sodium mesoxalate and 1.6 mM NADH in reaction buffer (50 mM Tris-HCl, pH 7.4, 50 mM KCl, and 1 mM DTT).
Assay Protocol: First, 30 μL aliquots of the GroEL/ES-dMDH binary complex stocks were dispensed into clear, 384-well polystyrene plates. […] The chaperonin-mediated refolding cycles were initiated by addition of 20 μL of ATP stock (reagent concentrations during refolding cycle: 50 nM GroEL, 60 nM GroES, 12 nM dMDH, 1 mM ATP, and compounds of 100 μM to 46 nM, 3-fold dilution series) and the refolding reactions were incubated at 37° C. […] Next, the assay was quenched by addition of 10 μL of the EDTA stock to give a final concentration of 100 mM in the wells. […] A340 nm measurements were recorded at 0.5 minutes (start point) and at successive time points until the amount of NADH consumed reached ˜90% (end point, generally between 20-35 minutes).
Evaluating analogs for inhibiting GroEL/ES-mediated substrate refolding functions. […] We first evaluated all test compounds in our standard GroEL/ES-mediated refolding assays that employ either malate dehydrogenase (MDH) or rhodanese (Rho) as the denatured substrate reporter enzymes. When denatured, these enzymes are efficiently folded by GroEL/ES in the absence of inhibitors, and thus act as reporters to determine the degree of inhibition against the bacterial chaperonin system. Inhibition was examined in the presence of these two orthogonal substrates in order to support that GroEL/ES inhibitors were on-target. To further support on-target effects against GroEL/ES, we counter-screened for inhibition of the native MDH and Rho enzymatic reporter reactions, where test compounds were added after the denatured MDH and Rho substrate enzymes were completely refolded by GroEL/ES.

[2] = test system: Staphylococcus aureus strain Seattle 1945 (ATCC #25923); assay: bacterial proliferation assay, S. aureus; type: cell-based; settings: read-out: Bacterial Proliferation EC50 S. aureus
Experimental: (§1) All compounds were evaluated for inhibiting the proliferation of E. coli and each of the ESKAPE bacteria. Results presented represent the averages of EC50 values obtained from at least four replicates. Evaluating compounds for inhibition of bacterial cell proliferation.
(§2) Growth Media: E. coli were grown with LB medium and all ESKAPE bacteria were grown in Brain Heart Infusion (BHI) medium (Becton, Dickinson and Company), with all liquid cultures supplemented with 25 mg/L Ca^2+ and 12.5 mg/L Mg^2+ to mimic physiological free concentrations of these cations. A 10 mg/mL Ca^2+ stock solution was prepared by dissolving 1.84 g of CaCl2.2H2O in 50 mL of deionized water, and a 10 mg/mL Mg^2+ stock solution was prepared by dissolving 4.18 g of MgCl2.6H2O in 50 mL deionized water—filter sterilized using 0.2 μm cellulose-acetate filters. 2.5 mL of the sterile 10 mg/mL Ca^2+ stock and 1.25 mL of the sterile 10 mg/mL Mg^2+ stock solutions were added per 1 L of autoclaved LB or BHI media to obtain 25 mg/L Ca^2+ and 12.5 mg/L Mg^2+ ions, respectively.
(§3) General Assay Protocol: Stock bacterial cultures were streaked onto LB or BHI agar plates and grown overnight at 37° C. Fresh aliquots of cation supplemented media were inoculated with single bacterial colonies and the cultures were grown overnight at 37° C. with shaking (240 rpm). The following morning, cultures were diluted 10-fold into fresh media and grown at 37° C. until bacteria had reached mid-log phase growth (OD600˜0.4-0.6). The cultures were then diluted into fresh media to achieve final OD600 readings of 0.017. Aliquots of these diluted cultures (30 μL) were added to clear, flat-bottom 384-well polystyrene plates that were previously stamped with 0.5 μL of test compounds in 20 μL of media (yielding initial OD600=0.01 bacterial cultures). All compounds were tested in dose-response with concentration ranges during the proliferation assays from 100 μM to 46 nM (3-fold dilution series). A second set of baseline control plates were prepared analogously, but without any bacteria added, to correct for possible compound absorbance and/or precipitation. […] Plates were then read at 600 nm using a Molecular Devices SpectraMax Plus384 microplate reader. […] Results presented represent the averages of EC50 values obtained from at least four replicates.
(§4) Evaluating analogs for inhibiting the growth of E. coli and the ESKAPE bacteria. Analogs were initially tested for antibacterial efficacy against representative strains of antibiotic-sensitive E. coli and the ESKAPE bacteria. To determine compound efficacy, bacterial proliferation assays were carried out in liquid media culture supplemented with physiological concentrations of free calcium and magnesium cations. For these assays, bacterial cultures (OD600=0.01) were exposed to test compounds in 8-point, 3-fold dilution series (100 μM to 46 nM concentration range), in 384-well plates. After addition of compounds to cultures, the plates were sealed with Breathe-Easy gas permeable membranes and allowed to grow to mid-log phase (OD600˜0.4-0.6), whereupon final OD600 readings were taken to assess for bacterial growth and inhibition.

[3] = test system: Klebsiella pneumoniae strain NCTC 9633 (ATCC #13883); assay: bacterial proliferation assay, K. pneumoniae; type: cell-based; settings: read-out: Bacterial Proliferation EC50 K. pneumoniae
Experimental: as §1, §2, §3, §4

[4] = test system: Acinetobacter baumannii strain 2208 (ATCC 19606); assay: bacterial proliferation assay, A. baumannii; type: cell-based; settings: ATCC19606, read-out: Bacterial Proliferation EC50 A. baumannii
Experimental: as §1, §2, §3, §4

[5] = test system: Enterobacter cloacae strain CDC 442-68 (ATCC #13047); assay: bacterial proliferation assay, E. cloacae; type: cell-based; settings: ATCC13047, read-out: Bacterial Proliferation EC50 E. cloacae
Experimental: as §1, §2, §3, §4

[6] = Staphylococcus aureus, ATCC25923
[7] = without NfsB nitroreductase, read-out: GroEL/ES-dMDH Refolding IC50

T1 sequence (P0A6F5 2-548): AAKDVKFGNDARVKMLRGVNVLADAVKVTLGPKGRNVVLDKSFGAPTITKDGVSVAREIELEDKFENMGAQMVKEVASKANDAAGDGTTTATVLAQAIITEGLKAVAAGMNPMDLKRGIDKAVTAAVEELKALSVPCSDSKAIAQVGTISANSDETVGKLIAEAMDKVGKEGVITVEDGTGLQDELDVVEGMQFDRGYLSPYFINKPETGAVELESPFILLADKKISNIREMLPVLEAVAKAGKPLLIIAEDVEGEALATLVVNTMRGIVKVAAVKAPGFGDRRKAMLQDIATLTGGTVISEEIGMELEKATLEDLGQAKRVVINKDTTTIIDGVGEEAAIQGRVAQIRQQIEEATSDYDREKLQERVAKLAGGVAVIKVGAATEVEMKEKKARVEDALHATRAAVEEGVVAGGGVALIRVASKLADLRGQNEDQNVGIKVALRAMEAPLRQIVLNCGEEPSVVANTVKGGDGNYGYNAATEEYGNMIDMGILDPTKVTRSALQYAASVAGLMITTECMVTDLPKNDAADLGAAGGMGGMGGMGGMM

## O=[N+]([O-])c1ccc(O)c2ncccc12 [Nitroxoline, reference compound]
[1]
  IC50: 50 µM
[2]; [6]
  EC50: 9.5 µM
[3]; Klebsiella pneumoniae
  EC50: 2.8 µM
[4]
  EC50: 2.5 µM
[5]
  EC50: 6.6 µM

## COc1ccc(C(=O)NN)cc1 [Compound 42, reference compound]
[1]
  IC50: > 100 µM
[2]; [6]
  EC50: > 100 µM
[3]; Klebsiella pneumoniae
  EC50: > 100 µM
[4]
  EC50: > 100 µM
[5]
  EC50: > 100 µM

## COc1ccc(C(=O)N/N=C/c2ccccc2)cc1 [Compound 37, N′-benzylidene-4-methoxybenzohydrazide]
[1]
  IC50: > 100 µM
[2]; [6]
  EC50: > 100 µM
[3]; Klebsiella pneumoniae
  EC50: > 100 µM
[4]
  EC50: > 100 µM
[5]
  EC50: > 100 µM

## COc1ccc(C(=O)N/N=C/c2ccc([N+](=O)[O-])o2)cc1 [Compound 20, 4-methoxy-N′-((5-nitrofuran-2-yl)methylene)benzohydrazide]
[1]; [7]
  IC50: 69 µM
[2]; [6]
  EC50: 8.1 µM
[3]; Klebsiella pneumoniae
  EC50: > 100 µM
[4]
  EC50: > 100 µM
[5]
  EC50: > 100 µM

## O=C(N/N=C/c1ccc(O)c2ncccc12)c1ccc(Cl)s1 [Compound 4, 5-chloro-N′-((8-hydroxyquinolin-5-yl)methylene)thiophene-2-carbohydrazide]
[1]
  IC50: 9.6 µM
[2]; [6]
  EC50: 84 µM
[3]; Klebsiella pneumoniae
  EC50: > 100 µM
[4]
  EC50: > 100 µM
[5]
  EC50: > 100 µM

## O=C(N/N=C/c1ccc(O)c2ncccc12)c1cccc2ccccc12 [Compound 9, N′-((8-hydroxyquinolin-5-yl)methylene)-1-naphthohydrazide]
[1]
  IC50: 13 µM
[2]; [6]
  EC50: 56 µM
[3]; Klebsiella pneumoniae
  EC50: > 100 µM
[4]
  EC50: > 100 µM
[5]
  EC50: > 100 µM

## O=Cc1ccc(O)c2ncccc12 [Compound 40, reference compound]
[1]; [7]
  IC50: > 100 µM
[2]; [6]
  EC50: 19 µM
[3]; Klebsiella pneumoniae
  EC50: 15 µM
[4]
  EC50: 11 µM
[5]
  EC50: 24 µM

## COc1ccc(C(=O)N/N=C/c2ccco2)cc1 [Compound 39, N′-(furan-2-ylmethylene)-4-methoxybenzohydrazide]
[1]
  IC50: > 100 µM
[2]; [6]
  EC50: > 100 µM
[3]; Klebsiella pneumoniae
  EC50: > 100 µM
[4]
  EC50: > 100 µM
[5]
  EC50: > 100 µM

## O=C(N/N=C/c1ccccc1)c1ccccc1 [Compound 38, N′-benzylidenebenzohydrazide]
[1]
  IC50: > 100 µM
[2]; [6]
  EC50: > 100 µM
[3]; Klebsiella pneumoniae
  EC50: > 100 µM
[4]
  EC50: > 100 µM
[5]
  EC50: > 100 µM

## O=C(N/N=C/c1ccc([N+](=O)[O-])o1)c1cccc2ccccc12 [Compound 22, N′-((5-nitrofuran-2-yl)methylene)-1-naphthohydrazide]
[1]
  IC50: 82 µM
[2]; [6]
  EC50: 6 µM
[3]; Klebsiella pneumoniae
  EC50: > 100 µM
[4]
  EC50: > 100 µM
[5]
  EC50: > 100 µM

## O=C(N/N=C/c1ccc(O)c2ncccc12)c1ccc(O)cc1 [Compound 7, 4-hydroxy-N′-((8-hydroxyquinolin-5-yl)methylene)benzohydrazide]
[1]
  IC50: 43 µM
[2]; [6]
  EC50: 48 µM
[3]; Klebsiella pneumoniae
  EC50: 87 µM
[4]
  EC50: 71 µM
[5]
  EC50: 97 µM

## COc1ccc(C(=O)N/N=C/c2cccc3ccccc23)cc1 [Compound 33, 4-methoxy-N′-(naphthalen-1-ylmethylene)benzohydrazide]
[1]
  IC50: > 100 µM
[2]; [6]
  EC50: > 100 µM
[3]; Klebsiella pneumoniae
  EC50: > 100 µM
[4]
  EC50: > 100 µM
[5]
  EC50: > 100 µM

## O=C(N/N=C/c1ccc(O)c2ncccc12)c1cccc(Oc2ccccc2)c1 [Compound 11, N′-((8-hydroxyquinolin-5-yl)methylene)-3-phenoxybenzohydrazide]
[1]
  IC50: 13 µM
[2]; [6]
  EC50: > 100 µM
[3]; Klebsiella pneumoniae
  EC50: > 100 µM
[4]
  EC50: > 100 µM
[5]
  EC50: > 100 µM

## CCN(CC)S(=O)(=O)c1cccc(C(=O)N/N=C/c2ccc(O)c3ncccc23)c1 [Compound 12, N,N-diethyl-3-(2-((8-hydroxyquinolin-5-yl)methylene)hydrazine-1-carbonyl)benzenesulfonamide]
[1]
  IC50: 19 µM
[2]; [6]
  EC50: > 100 µM
[3]; Klebsiella pneumoniae
  EC50: > 100 µM
[4]
  EC50: > 100 µM
[5]
  EC50: > 100 µM

## COc1ccc(C(=O)N/N=C/c2ccc(O)c3ncccc23)cc1 [Compound 1, N′-((8-hydroxyquinolin-5-yl)methylene)-4-methoxybenzohydrazide]
[1]
  IC50: 77 µM
[2]
  EC50: 87 µM
[3]
  EC50: 85 µM
[4]
  EC50: > 100 µM
[5]
  EC50: 100 µM

## O=C(N/N=C/c1ccc(O)c2ncccc12)c1ccccc1Oc1ccccc1 [Compound 10, N′-((8-hydroxyquinolin-5-yl)methylene)-2-phenoxybenzohydrazide]
[1]
  IC50: 15 µM
[2]; [6]
  EC50: > 100 µM
[3]; Klebsiella pneumoniae
  EC50: > 100 µM
[4]
  EC50: > 100 µM
[5]
  EC50: > 100 µM

## COc1ccc(C(=O)N/N=C/c2cccc3ncccc23)cc1 [Compound 31, 4-methoxy-N′-(quinolin-5-ylmethylene)benzohydrazide]
[1]
  IC50: > 100 µM
[2]; [6]
  EC50: > 100 µM
[3]; Klebsiella pneumoniae
  EC50: > 100 µM
[4]
  EC50: > 100 µM
[5]
  EC50: > 100 µM

## O=C(N/N=C/c1ccc([N+](=O)[O-])o1)c1ccc(NS(=O)(=O)c2ccc(Br)cc2)cc1 [Compound 27, 4-bromo-N-(4-(2-((5-nitrofuran-2-yl)methylene)hydrazine-1-carbonyl)phenyl)benzenesulfonamide]
[1]
  IC50: 36 µM
[2]; [6]
  EC50: > 100 µM
[3]; Klebsiella pneumoniae
  EC50: > 100 µM
[4]
  EC50: > 100 µM
[5]
  EC50: > 100 µM

## O=C(N/N=C/c1ccc(O)cc1)c1ccccc1 [Compound 36, N′-(4-hydroxybenzylidene)benzohydrazide]
[1]
  IC50: > 100 µM
[2]; [6]
  EC50: > 100 µM
[3]; Klebsiella pneumoniae
  EC50: > 100 µM
[4]
  EC50: > 100 µM
[5]
  EC50: > 100 µM
